Read-outs that look alike come from different tables or passages of the source.
Tests used:
Ly1 lymphoma cells = test: Cell growth sensitivity, Ly1; assay type: cell-based
[1] = tested on: MDA-MB-231 human triple-negative breast cancer cells; settings: for inhibition of lung metastasis / IC50, metastasized tumor cells in the lungs: NSG mice, oral; for IC50, metastasized tumor cells in the lungs: six days a week, eight weeks
Procedure: We used two mouse models. In the first orthotopic spontaneous tumor metastasis mouse model, MDA-MB-231 human triple-negative breast cancer cells were injected into the orthotopic site (the mammary gland) of immuno-deficient NSG mice, and then the metastasis to the lung was monitored (Figure 2A–C). Seven days after the implantation of MDA-MB-231 tumor cells, we orally administered the mice with different concentrations of NP-G2-044 either once a day or twice a day for six days a week. After eight weeks, the mice were sacrificed and examined for metastasis in the lungs. […] Lung tumor metastasis was further verified by a histological analysis of lung sections and stained with hematoxylin and eosin (Figure 2C).
MDA-MB-231 cells (subclone LM2) (1 × 10^5) suspended in PBS-matrigel (v/v, 1:1) were injected subcutaneously into the abdominal mammary gland area of female NSG mice (6- to 8-week old from the Jackson Lab) on day 0 as previously described. Starting on Day 7, NP-G2-044 or the control solvent was given once or twice a day for 6 days every week by gavage until the eighth week. On the first day of the ninth week, the mice were killed.
(§1) The numbers of metastatic MDA-MB-231 cells in lungs were determined by a clonogenic assay. The lungs were removed from each mouse once sacrificed, and the resulting cells were suspended and plated with a series of dilutions in 10-cm tissue culture dishes in medium containing 2.0 µg/mL puromycin for clonogenic growth. As these MBA-MB-231 tumor cells were stably transfected with the vector pSuper-puro, the metastasized tumor cells formed foci after 14 days, at which time they were fixed with 4% paraformaldehyde and stained with crystal violet staining solution for counting. For combination treatments with chemotherapy, MDA-MB-231 tumor cells (1 × 10^5) suspended in PBS-matrigel (v/v, 1:1) were injected subcutaneously into the abdominal mammary gland area of mice on Day 0. Starting on Day 0, 7, or 14, NP-G2-044 was given to mice once a day for 6 days every week by oral gavage at 300 mg/kg per mouse. A vehicle solvent was given to the control mice once a day for 6 days every week. Starting on day 14, doxorubicin hydrochloride (MilliporeSigma, St. Louis, MO, USA) (2 mg/kg) and cyclophosphamide monohydrate (MilliporeSigma) (60 mg/kg) were given to mice once a week for four weeks. Primary tumors were removed on day 28. The death of the mice was used as the endpoint.

[2] = tested on: MDA-MB-231 human triple-negative breast cancer cells; test: Overall survival of MDA-MB-231 tumor-bearing mice; assay type: in vivo
Procedure: as §1

[3] = tested on: NF-κB nuclear translocation in U2932 cells; test: p65 (NF-κB) nuclear translocation, Western blotting, U2932; assay type: cell-based; settings: 30 µM, 16 h
Procedure: (§2) We treated U2932 cells with or without NP-G2-044, and measured the potential effects of NP-G2-044 on various pathways critical for lymphoma cell growth.
(§3) The lymphoma cells were plated in 10-cm dish. After culture for 24 h, cells were incubated in serum-free medium for 16 h. Cells were then incubated in growth medium with 30 µM NP-G2-044 or dissolvent for 16 h, followed by collecting whole cell lysates or nuclear extracts as previously described.

[4] = tested on: 4T1 mouse triple-negative breast cancer cells; settings: for inhibition of lung metastasis / IC50, metastasized 4T1 cells in the lungs: BALB/c mice, oral; for IC50, metastasized 4T1 cells in the lungs: Day 7 to Day 27
Procedure: In the second orthotopic spontaneous tumor metastasis mouse model, 4T1 mouse triple-negative breast cancer cells were injected into the mammary gland of BALB/c mice, and then the metastasis to the lung was monitored (Figure 2D,E). The 4T1 mouse tumor closely mimics human breast cancer in its anatomical site, immunogenicity, growth characteristics, and metastatic properties. From the mammary gland, the 4T1 tumor spontaneously metastasizes to a variety of target organs including lung, bone, brain, and liver. Seven days after the implantation of 4T1 tumor cells, we orally administered the mice with different concentrations of NP-G2-044 either once a day or twice a day for six days a week. After 28 days, the mice were sacrificed and examined for metastasis in the lungs.
Female BALB/c mice (6- to 8-week old) were purchased from Charles River Labs. The 4T1 tumor cells (1 × 10^5) were injected subcutaneously into the abdominal mammary gland area of mice using 0.1 mL of a single-cell suspension in PBS-matrigel (v/v, 1:1) on Day 0 as previously described. […] On Day 28, the mice were sacrificed. […] The numbers of metastatic 4T1 cells in lungs were determined by a clonogenic assay. In brief, the lungs were removed from each mouse, finely minced and digested in 5 mL of an enzyme cocktail containing 1 × PBS and 1 mg/mL collagenase type IV for 2 h at 37 ℃ on a platform rocker. After incubation, samples were filtered through 70-µm nylon cell strainers and washed twice with PBS. The resulting cells were suspended and plated with a series of dilutions in 10-cm tissue culture dishes in DMEM medium containing 60 µM thioguanine for clonogenic growth. As 4T1 tumor cells are resistant to 6-thioguanine, the metastasized tumor cells formed foci after 14 days, at which time they were fixed with 4% paraformaldehyde and stained with crystal violet staining solution for counting. For the experiments in Figure 2F,G, 4T1 tumor cells (1 × 10^5) suspended in PBS-matrigel (v/v, 1:1) were injected subcutaneously into the abdominal mammary gland area of mice on day 0. Starting on Day 3, NP-G2-044 was given to mice once every day by oral gavage at 100 mg kg^−1 per mouse. A vehicle solvent was given to the control group of mice once every day by gavage. Starting on Day 7, paclitaxel was given to mice twice a week by an intraperitoneal injection at 20 mg kg^−1 per mouse for two weeks. Primary tumors were removed on Day 14. All mice were killed for a clonogenic assay on Day 32.

[5] = tested on: phosphorylation of PI3K, AKT, JNK, and STAT6; test: Western blotting of signaling pathways in U2932 cells; assay type: cell-based; settings: 30 µM, 16 h
Procedure: as §2, §3

Ly10 cells = test: Soft-agar colony formation assay, Ly10; assay type: cell-based; settings: 14 days, dosage-dependent
Procedure: A total of 1 × or 2 ×10^4 cells were suspended in 0.5 mL of 0.3% low melting point agar (Merck KGaA, Darmstadt, Germany) in RPMI-1640 or DMEM containing 10% FBS and control solvent or the inhibitors. This suspension was overlaid on pre-solidified with 0.6% agar in the same medium in 24-well plates as previously described. Normal growth medium containing control solvent or the inhibitors was gently layered over the cultures every 4 days for 14 days. The colonies were stained with 0.1% crystal violet for 1 h at room temperature and counted under a microscope.

[6] = tested on: NCI-H660 human neuroendocrine prostate cancer cells; test: Boyden chamber cell migration assay; assay type: cell-based; settings: about twenty hours, 10% serum, read-out: IC50, tumor cell migration
From the text: Cells were stained with crystal violet staining solution, and cells on the upper side of the insert were removed with a cotton swab.

[7] = Plasma protein binding assay with mouse plasma; assay type: in vitro ADME; settings: in the presence of 100% serum

Cc1occc1C(=O)Nc1nn(Cc2ccc(C(F)(F)F)cc2)c2ccccc12 [NP-G2-044]
growth sensitivity (Ly1 lymphoma cells): insensitive
inhibition of lung metastasis ([1]; 100 mg/kg twice a day): almost completely inhibition
inhibition of lung metastasis ([1]; 300 mg/kg once a day): almost complete inhibition
IC50, metastasized tumor cells in the lungs ([1]; once a day): 78.7 mg/kg
IC50, metastasized tumor cells in the lungs ([1]; twice a day): 29.2 mg/kg
tolerability of dosage regimen ([1]; mouse, in vivo): well tolerated with no signs of overt toxicity
increase of median overall survival ([2]; NSG mice, compared with the control group, primary tumors removed on day 28): ~ 29%
overall survival by start of treatment ([2]; combination with chemotherapy, NP-G2-044 starting on Day 0 and Day 7 versus Day 14): longer overall survival
nuclear translocation of the p65 subunits [3]: decreased
inhibition of lung metastasis ([4]; 30 mg/kg twice a day): almost complete inhibition
inhibition of lung metastasis ([4]; 300 mg/kg once a day): almost complete inhibition
IC50, metastasized 4T1 cells in the lungs ([4]; once a day): 40 mg/kg
IC50, metastasized 4T1 cells in the lungs ([4]; twice a day): 5 mg/kg
tolerability of dosage regimen ([4]; mouse, in vivo): well tolerated with no signs of overt toxicity
phosphorylation of PI3K, AKT kinase, JNK kinase, and STAT6 transcription factor [5]: no effect
number of growing colonies (Ly10 cells): decreased the number of growing colonies
IC50 [6]: 3 to 5 µM
fraction unbound [7]: ~0.003
